Data taken from patent US9345258B2, “Synergistic phytochemical composition and a process for preparation thereof” (priority 2011, dated 2016).

Test system: primary OA
Assay: Randomized, single blind, placebo-controlled trial in painful osteoarthritis
Type: in vivo, patients
Settings: 42 days treatment
Experimental: The present trial was earned out to evaluate the effectiveness of the composition of the invention in the treatment of painful OA [a randomized, single blind, placebo-controlled trial]. 120 patients (37 males and 83 females) with primary OA received either the composition of the invention (500 mg twice daily) or Glucosamine sulphate (750 mg twice daily) or placebo (500 mg twice daily) or combination of the composition of the invention and Glucosamine sulphate for 42 days. During the treatment period two follow up visits on day 21st and day 42nd, efficacy was evaluated in terms of change in the intensity/severity of symptoms (as measured by VAS, WOMAC scale) and examination by orthopaedician (as measured by CGIC).

In the case of `N[C@H]1C(O)O[C@H](CO)[C@@H](O)[C@@H]1O.O=S(=O)(O)O` (stereo partly shown) [Glucosamine sulphate], the “signs and symptoms of OA” value is reported as “Overall improvement”.
